Holding throughout (format): cell-based, human
Assay [1] deals with Ishikawa, Hec50co, COV434, and HFF-1 cells. The experiment in a line: Cell viability (MTT and NR assays), statements over all cell lines. As for the experimental part: The Ishikawa, Hec50co, COV434, and HFF-1 cell lines were plated at a density of 5 × 10^4 cells/well in transparent 96-well plates. After 24 h, the cells were treated with Mito6_TPP, Mito6_picol., or Mito6_isoq. (0.01–100 μM) and incubated at 37 °C with 5% CO2 for 24, 48, or 72 h. […] The conditions of the methylthiazolyldiphenyl-tetrazolium bromide (MTT) assay were adapted from the work of Banerjee et al.. Briefly, MTT was added to a final concentration of 0.5 mg/mL, and the cells were incubated for 3 h at 37 °C with 5% CO2. After the 3 h, purple MTT formazan crystals were dissolved by agitation for 15 min in a solution of DMSO/isopropanol (ratio 3:1) and quantified spectrophotometrically at 540 nm. The neutral red (NR) assay conditions were based on the work developed by Repetto et al.. Briefly, after the incubation time, cells were incubated with NR at 40 μg/mL in an FBS-free cell medium for 3 h. The cells were then incubated with a solution of 50% ethanol (96% v/v), 49% deionized water, and 1% glacial acetic acid, with shaking for 15 min. The NR extracted from the cells was measured at 540 nm. […] For all assays, the absorbance was read using a BioTek Synergy HTX Multi-Mode Microplate Reader equipped with BioTek Gen5 Data Collection and Analysis Software (BioTek Instruments, Winooski, VT, USA).

Assay [2] deals with Hec50co cells. Kind of assay: Cell morphology by Giemsa staining. The note with it: 72 h, 5 μM Mito6_TPP, 20 μM Mito6_picol., 10 μM Mito6_isoq. As for the experimental part:
Morphological changes in all cell lines were evaluated by phase-contrast microscopy (Eclipse TS100 Inverted Microscope, Nikon, Tokyo, Japan) and Giemsa staining. […] The cells were plated in 24-well plates with coverslips using the densities of 1 × 10^5 cells/well in Ishikawa and Hec50co and 2.5 × 10^5 cells/well in COV434 and HFF-1. After adherence, the cells were treated with Mito6_TPP (5 μM), Mito6_picol. (20 μM), or Mito6_isoq. (10 μM) and incubated at 37 °C with 5% CO2 for 72 h. For Giemsa staining, the cells were fixated with paraformaldehyde 4% in Phosphate Buffered Saline (PBS) for 15 min, stained with Giemsa solution for 30 min, mounted with DPX, and observed through bright field microscopy. For Höechst staining, the cells were incubated with 0.5 μg/mL Höechst 33342 in PBS for 20 min in the dark, mounted in Fluoroshield, and observed under a fluorescence microscope equipped with an excitation filter with maximum transmission at 360/400 nm. In both stainings, the cells were observed using the microscope Eclipse CI (Nikon, Japan) and the images were processed with Nikon NIS Elements Image Software (Nikon, Japan).

The subject of assay [3] is Hec50co cells. The experiment in a line: Intracellular ROS/RNS assessment, DCFH-DA probe. The note with it: 10 μM, 2 h immediately after addition. As for the experimental part:
(§1) The assay for the evaluation of the levels of ROS/RNS was based on the work of Bak, et al.. All cell lines were cultured in black 96-well plates at a density of 5 × 10^4 cells/well and allowed to adhere for 24 h. After adherence, the cells were incubated with 2′,7′-dichlorodihydrofluorescein diacetate (DCFH-DA) (25 μM) for 1 h at 37 °C in the dark. The DCFH-DA probe allows the detection of intracellular ROS, more specifically H2O2, HO^● and ROO^●, and RNS, more specifically, ^●NO and ONOO^− [51]. The cells were then treated with 10 μM of either Mito6_TPP, Mito6_picol., or Mito6_isoq. The stress inducer H2O2 (200 μM) was used as the positive control. The fluorescence provided by the probe was measured immediately and every 5 min for 2 h at 37 °C using a BioTek Synergy HTX Multi-Mode Microplate Fluorimeter equipped with BioTek Gen5 Data Collection and Analysis Software (BioTek Instruments, Winooski, VT, USA) (excitation: 485 nm; emission: 530 nm).

Assay [4] relates to COV434 cells. Kind of assay: Intracellular ROS/RNS assessment, DCFH-DA probe. The note with it: COV434, 10 μM, 2 h immediately after addition. As to the method: as §1
Assay [5] deals with Ishikawa cells. Kind of assay: Intracellular ROS/RNS assessment, DCFH-DA probe. The note with it: 10 μM, 2 h immediately after addition. As for the experimental part: as §1

For the compound `O=C(/C=C/c1ccc(O)c(O)c1)NCCCCCCCCCC[P+](c1ccccc1)(c1ccccc1)c1ccccc1` [Mito6_TPP], the “Lowest concentration inducing a significant decrease in cell viability” value in assay [1] is 1 µM. Besides, the “Cell morphology changes (Giemsa staining)” value in assay [2] was “altered cell shapes and indications of chromatin condensation”. In addition, the “Intracellular ROS levels vs untreated cells” value in assay [3] is “faster and more accentuated decrease in ROS levels”; in assay [4] it was “faster and more accentuated decrease in ROS levels”; in assay [5], “faster and more accentuated decrease in ROS levels”.

In the case of `Cc1cc[n+](CCCCCCCCCCNC(=O)/C=C/c2ccc(O)c(O)c2)cc1` [Mito6_picol.], the “Cell morphology changes (Giemsa staining)” value in assay [2] is reported as “did not induce any morphological changes”. In assay [4], the “Intracellular ROS levels vs untreated cells” value is given as “no effects”.

Values taken from article PMC9030827, “In Vitro Effects of Mitochondria-Targeted Antioxidants in a Small-Cell Carcinoma of the Ovary of Hypercalcemic Type and in Type 1 and Type 2 Endometrial Cancer” (Biomedicines, 2022).
